In PubChem BioAssay (NCI):
“And” between values parts separate entries of the source, which are not always exact repeats. Equal entries are not always repeated.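 In this assay, cells in 96-well plates receive the compound at five concentrations for 48 hours. Endpoints are linearly interpolated between the surrounding concentrations. Abbreviation: GI50, concentration required for 50% inhibition of growth. TGI: concentration producing complete growth inhibition.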

What was measured:
Assay in all cases: growth of human tumour cells (NCI), 48 h
786-0 renal = tested on: 786-0 renal
A498 renal = tested on: A498 renal
ACHN renal = tested on: ACHN renal
DU-145 prostate = tested on: DU-145 prostate
HCT-116 colon = tested on: HCT-116 colon
HS 578T breast = tested on: HS 578T breast
MOLT-4 leukemia = tested on: MOLT-4 leukemia
NCI-H226 lung = tested on: NCI-H226 lung
NCI/ADR-RES ovarian = tested on: NCI/ADR-RES ovarian
UACC-257 melanoma = tested on: UACC-257 melanoma

Row | SMILES | GI50 (786-0 renal) | TGI (786-0 renal) | GI50 (A498 renal) | TGI (A498 renal) | GI50 (ACHN renal) | TGI (ACHN renal) | GI50 (DU-145 prostate) | TGI (DU-145 prostate) | GI50 (HCT-116 colon) | TGI (HCT-116 colon) | GI50 (HS 578T breast) | TGI (HS 578T breast) | GI50 (MOLT-4 leukemia) | TGI (MOLT-4 leukemia) | GI50 (NCI-H226 lung) | TGI (NCI-H226 lung) | GI50 (NCI/ADR-RES ovarian) | TGI (NCI/ADR-RES ovarian) | GI50 (UACC-257 melanoma) | TGI (UACC-257 melanoma)
1 | O=C1N=C(Nc2nc(-c3csc(NC4=NC(=O)/C(=C\c5ccccc5)S4)n3)cs2)S/C1=C/c1ccccc1 | 9.54 µM | 34.9 µM | > 50 µM | > 50 µM | 12.2 µM | 46.3 µM | 16.8 µM | > 50 µM | 3.5 µM | 29 µM | > 50 µM | > 50 µM | 3.02 µM | > 50 µM | 0.337 µM | 12.8 µM | 15.9 µM | > 50 µM | 12.2 µM | 28.1 µM
2 | C[C@@H]1CC[C@@]2(NC1)O[C@H]1C[C@H]3[C@@H]4CC[C@H]5C[C@@H](O)CC[C@]5(C)[C@H]4CC[C@]3(C)[C@H]1[C@@H]2C |  | > 100 µM |  | > 100 µM |  | 85.5 µM |  | > 100 µM |  | > 100 µM |  | > 100 µM |  | > 100 µM |  | > 100 µM |  | > 100 µM |  | > 100 µM
3 | COc1ccc2[nH]c(C(=O)OCc3ccc4c(Cl)cc(Cl)c(O)c4n3)cc2c1 | 1.3 µM | 2.6 µM | 1.91 µM | 3.73 µM | 1.08 µM | 2.26 µM | 1.33 µM | 2.61 µM | 0.436 µM | 1.65 µM | 1.28 µM | 3.81 µM | 1.03 µM | 3.72 µM | 1.42 µM | 3.07 µM | 2.08 µM | 8.16 µM | 1.64 µM | 4.23 µM
4 | CCC1=C(CC2NCCc3ccccc32)CC2c3cc(OC)c(OC)cc3CCN2C1 (configuration not stated) | 4.04 µM | 17.1 µM and 2.9 µM | 4.25 µM | 19.6 µM and 5.8 µM | 3.96 µM | 37.6 µM and 3.9 µM | 3.24 µM | 12.7 µM and 2.59 µM | 2.86 µM | 11.6 µM and 2.94 µM | 3.07 µM | 12.8 µM and 3.73 µM | 3.39 µM | 13.8 µM and 2.2 µM | 4.7 µM | 37.4 µM and 4.74 µM | 6.7 µM | 50.9 µM and 12.4 µM | 10 µM | 24.5 µM and 9.49 µM
5 | CCOC(=O)CN1C(=O)c2cc([N+](=O)[O-])cc3cc([N+](=O)[O-])cc(c23)C1=O |  | > 100 µM |  | > 100 µM |  | > 100 µM |  | > 100 µM |  | > 100 µM |  | > 100 µM |  | > 64.9 µM |  | > 100 µM |  | > 100 µM |  | > 100 µM
6 | CC(C)(C)OC(=O)Nc1ccc2c(c1)C(NC(=O)Nc1cccc(C#N)c1)CC(C)(C)O2 (configuration not stated) | 5.05 µM | > 100 µM | 7.14 µM | > 100 µM | 3.99 µM | > 100 µM | 6.5 µM | > 100 µM | 1.24 µM | > 44.6 µM | 8.79 µM | > 100 µM | 1.96 µM | > 64.6 µM | 2.29 µM | 42.8 µM | 2.78 µM | > 64.6 µM | 1.07 µM | 6.93 µM
7 | N#Cc1cccc(N2C(=O)C3C4C=CC(C3C2=O)C2C(=O)N(c3cccc(C#N)c3)C(=O)C42)c1 (configuration not stated) |  | > 63.1 µM |  | 42 µM |  | 55.2 µM |  | > 100 µM |  | 31.6 µM |  | > 95.5 µM |  | 50.2 µM |  | > 63.1 µM |  | > 100 µM |  | > 63.1 µM
8 | COC(=O)N[C@H]1CCc2c(Cl)c(OC)c(OC)c(OC)c2-c2ccc(SC)c(=O)cc21 | < 0.01 µM | > 36.9 µM | < 0.01 µM | < 0.01 µM | < 0.01 µM | 38.1 µM | < 0.01 µM | > 100 µM | < 0.01 µM |  | < 0.01 µM | > 100 µM | < 0.01 µM | > 76.8 µM | < 0.01 µM | 14.2 µM | 0.0155 µM | 0.509 µM | 24.9 µM | > 100 µM
9 | O=C(Nc1cccc(C(F)(F)F)c1)Oc1ccc(Cl)c2cccnc12 | 5.09 µM | 15.4 µM | 3.82 µM | 12.4 µM | 1.23 µM | 5.43 µM | 2.38 µM | 15.8 µM | 0.615 µM | 8.03 µM | 3.56 µM | > 24 µM | 0.86 µM | 22.8 µM | 2.25 µM | 5.75 µM | 1.23 µM | 16.8 µM | 1.32 µM | 3.24 µM
10 | NC(Cc1ccccc1)c1nccs1 (configuration not stated) |  | > 100 µM |  | > 100 µM |  | > 100 µM |  | > 100 µM |  | > 100 µM |  | > 100 µM |  | > 100 µM |  | > 100 µM |  | > 100 µM |  | > 100 µM
11 | O=c1[nH]c(=O)n(C2CC(O)C(CO)O2)cc1C(F)(F)F (configuration not stated) | 0.464 µM |  |  | > 92 µM | 1.3 µM | > 100 µM | 2.85 µM | > 100 µM | 1.7 µM | > 100 µM | > 100 µM | > 100 µM | 1.65 µM | > 100 µM | 20.7 µM | > 100 µM | 4.81 µM | > 100 µM | 8.61 µM | > 100 µM
